Consider two compounds from patent US11696901B2 (SHAOGUAN UNIVERSITY, priority 2020, dated 2023).

Molecules are shown by their SMILES. Values joined by “and” are separate entries in the source; they are usually repeats but may differ in a detail not shown here. Equal entries are not always repeated.

A short description of data set [1]: Precipitation rate after centrifugation. The following applies: comparative experiment; curcumin concentration 6.0/5.8/4.8/4.0 mg/mL, pH 7/7/7/6 in row order; beverage = A3B2C2D2. In kind it is physicochemical. As for the experimental part:
The weight of the centrifuge tube and the total weight of the sample and the centrifuge tube were measured, and then the sample was centrifuged at 4,000 r/min for 15 min. The supernatant was discarded and the total weight of the centrifuge tube and the precipitate was accurately measured.
The precipitation rate was calculated as follows: precipitation rate=precipitate weight/sample weightx 100%.

A short description of data set [2]: Stability of absorbance (A/A0 after centrifugation). It is filed as physicochemical. The following applies: comparative experiment; curcumin concentration 6.0/5.8/4.8/4.0 mg/mL, pH 7/7/7/6 in row order; beverage = A3B2C2D2. As for the experimental part: The absorbance (A0) of the sample before the centrifugation and the absorbance (A) of the sample after the centrifugation were measured at the maximum absorption wavelength, and the stability of absorbance was represented by A/A0.

Data set [3] in a line: Optimal concentration of stabilizer Zn^2+, absorbance of curcumin solution at 425 nm. In kind it is physicochemical. As to conditions: after 60 h, room temperature. As for the experimental part: A series of Zn^2+ stock solutions were prepared as follows. 0.03 g, 0.06 g, 0.09 g, 0.12 g, 0.15 g and 0.18 g of zinc sulfate were dissolved with 100 mL of distilled water and stirred uniformly to prepare a series of zinc sulfate stock solutions with a concentration of 0.3 g/L, 0.6 g/L, 0.9 g/L, 1.2 g/L, 1.5 g/L and 1.8 g/L, respectively, which were stored for use.
The 7 vessels were placed at room temperature and measured for the absorbance at 425 nm using a microplate reader every other 12 h, where each measurement was performed in triplicate.

A short description of data set [4]: ABTS^+⋅ scavenging activity. It is filed as biochemical. As to conditions: positive control. As for the experimental part: (§1) The beverage samples were prepared as follows.
2 mg, 4 mg, 6 mg, 8 mg and 10 mg of Vc were diluted with distilled water to 100 mL, respectively, that was, the final concentrations of the Vc were 20 μg/mL, 40 μg/mL, 60 μg/mL, 80 μg/mL and […], respectively.
5 mL of a K2S2O8 solution (2.6 mmol/L) and 10 mL of an […] (7.4 mmol/L) were mixed uniformly and reacted in dark for 12 h. The ABTS^+⋅ solution was diluted with phosphate buffer solution (pH=6.6) to an absorbance of 0.70±0.02 to produce a working solution. […] The reaction mixture was mixed uniformly, reacted in dark for 6 min and measured at 734 nm for the absorbance A1, where a well containing the sample and 160 μL of absolute ethanol was used as control; a well containing 40 μL of distilled water and 160 μL of the ABTS^+⋅ solution was used as blank group; and Vc was used as positive control.
(§2) The scavenging rate was calculated as follows: scavenging rate %=[1−(A1−A2)/A0]×100%,

A short description of data set [5]: DPPH⋅ scavenging activity. In kind it is biochemical. As to conditions: positive control. The procedure:
Moreover, it can also be acidified with citric acid to pH 4.6 and then pasteurized at 80° C. for 20 min; or filtered with a 0.22 μm organic filter for cold sterilization. The unsterilized beverage was used as control. The scavenging capacity toward DPPH free radical was used as an index to evaluate the sterilization effect, where the ascorbic acid (Vc) was used as positive control.
as §1
2 mg, 4 mg, 6 mg, 8 mg and 10 mg of Vc were diluted with distilled water to 100 mL, respectively, that was, the final concentrations of the Vc were 20 μg/mL, 40 μg/mL, 60 μg/mL, 80 μg/mL and 100 μg/mL, respectively.
The reaction mixture was reacted in dark for 30 min, and then measured at 517 nm for the absorbance (A1), where a well containing the sample and 100 μL of absolute ethanol was used as control; a well containing 100 μL of distilled water and 100 μL of the DPPH solution was used as blank group; and Vc was used as positive control.
as §2
On the technique in general: DPPH is a stable violet radical that fades when it is reduced.

Setting [6] is: Table 18 (starch sodium octenyl succinate series).
[7] abbreviates: Table 19, one value beside each beverage (nanoparticle powder 0.2-1.0%).
[8] abbreviates: Table 21, one value beside each test number.
Setting [9] is: verification experiment, mean of three repeats.
Where [10] appears, read: verification experiment, single repeats 1-3.

Take `COc1cc(/C=C/C(=O)CC(=O)/C=C/c2ccc(O)c(OC)c2)ccc1O` [Pure curcumin, Curcumin]: the “Precipitation rate after centrifugation (%)” value in data set [1] is on record as 0.550 ± 0.100%. In addition, the “Coefficient of absorbanee stability” value in data set [2] is recorded as 0.286 ± 0.180. The “absorbance of curcumin solution at 425 nm over time” value in data set [3] (Zn^2+ concentration 0.3 g/L) is “smallest slope and relatively stable absorbance”; in data set [3] (Zn^2+ concentration 0.36 g/L), “declining tendency”.
In the case of `O=C1O[C@H]([C@@H](O)CO)C(O)=C1O` [Vc, ascorbic acid], the “ABTS^+ · scavenging rate (%) Vc” value in data set [4] (Table 16 (CMC-Na series)) was 90.38%; in data set [4] (Table 17 (xanthan gum series)), 90.38%; in data set [4] (setting [6]) it was 90.38%; in data set [4] (setting [8]), 96.13% and 92.88% and 95.10%; in data set [4] (setting [9]) it was 95.34 ± 0.00%; in data set [4] (setting [10]), 95.34%. Moreover, the “Rate of ABTS^+ · radical clearance (%) Vc” value in data set [4] (setting [7]) was 92.44% and 93.69% and 94.53% and 88.12% and 90.38%. For the same compound, the “DPPH · scavenging rate (%) Vc” value is 92.51% in data set [5] (Table 16 (CMC-Na series)); 92.51% in data set [5] (Table 17 (xanthan gum series)); 92.51% in data set [5] (setting [6]); 95.72% and 93.44% and 94.65% in data set [5] (setting [8]); 94.5 ± 0.00% in data set [5] (setting [9]); 95.59% and 94.59% in data set [5] (setting [10]). The “Rate of DPPH · radical clearance (%) Vc” value in data set [5] (setting [7]) was 93.15% and 93.62% and 93.67% and 91.72% and 92.51%.
